Assay results published in ChEMBL document CHEMBL1201862, “PubChem BioAssay data set” (2004).
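Test compounds were applied to cells in 96-well plates for 48 hours at 5 doses. Here, GI50 denotes the concentration required for 50% inhibition of growth.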 The source made the active and inactive calls. Cut-off read from the data, not from the text of the source: active = GI50 up to about 1.1 µM and inactive = higher.

Columns and labels:
Test in all cases: inhibition of tumour cell growth, NCI panel, 48 h
SF-539 = system: SF-539
A549 = system: A549
HCC 2998 = system: HCC 2998
SK-OV-3 = system: SK-OV-3
NCI-H23 = system: NCI-H23
KM12 = system: KM12
Malme-3M = system: Malme-3M
OVCAR-4 = system: OVCAR-4
CAKI-1 = system: CAKI-1
SK-MEL-2 = system: SK-MEL-2
NCI/ADR-RES = system: NCI/ADR-RES
DU-145 = system: DU-145
SNB-19 = system: SNB-19
SK-MEL-28 = system: SK-MEL-28
IGROV-1 = system: IGROV-1
SF-295 = system: SF-295
MCF7 = system: MCF7
RPMI-8226 = system: RPMI-8226
BT-549 = system: BT-549

Measured: GI50

Cc1n[nH]c(=O)n1/N=C/c1ccncc1
inactive: SF-539 > 100 µM | A549 > 100 µM | HCC 2998 > 100 µM | SK-OV-3 > 100 µM | NCI-H23 > 100 µM | KM12 > 100 µM | Malme-3M > 100 µM | OVCAR-4 > 100 µM | CAKI-1 > 100 µM | SK-MEL-2 > 100 µM | NCI/ADR-RES > 100 µM | DU-145 > 100 µM | SNB-19 > 100 µM | SK-MEL-28 > 100 µM | IGROV-1 > 100 µM | SF-295 > 100 µM

COC(=O)N1C[C@@]2(C=CC3(CC2)OCCO3)c2ccccc21
inactive: A549 > 100 µM | HCC 2998 > 100 µM | SK-OV-3 > 100 µM | NCI-H23 95.7 µM | KM12 37.8 µM | OVCAR-4 > 100 µM | CAKI-1 > 100 µM | SK-MEL-2 > 100 µM | NCI/ADR-RES 28.6 µM | DU-145 > 100 µM | SNB-19 > 100 µM | SK-MEL-28 67.1 µM | MCF7 96.4 µM | RPMI-8226 61.1 µM | IGROV-1 49.1 µM | SF-295 > 100 µM

C=C1C(=O)O[C@H]2C/C(C)=C/CC[C@]3(C)CCC[C@](C)(CC[C@@H]12)O3
inactive: SF-539 9.48 µM | A549 16.6 µM | HCC 2998 7.24 µM | SK-OV-3 22.2 µM | NCI-H23 11.3 µM | KM12 8.43 µM | OVCAR-4 15.1 µM | CAKI-1 12 µM | SK-MEL-2 8.51 µM | NCI/ADR-RES 7.91 µM | DU-145 15.2 µM | SNB-19 15.8 µM | SK-MEL-28 7.52 µM | MCF7 13 µM | RPMI-8226 5.93 µM | IGROV-1 6.59 µM | SF-295 21.9 µM

N#Cc1ccc(Oc2nc3ccccc3nc2-c2ccccc2)cc1
inactive: HCC 2998 > 100 µM | SK-OV-3 > 100 µM | NCI-H23 > 100 µM | KM12 > 100 µM | Malme-3M > 100 µM | OVCAR-4 > 100 µM | CAKI-1 > 100 µM | SK-MEL-2 > 100 µM | DU-145 > 100 µM | SNB-19 > 100 µM | SK-MEL-28 > 100 µM | MCF7 > 100 µM | RPMI-8226 > 100 µM | IGROV-1 > 100 µM | SF-295 > 100 µM | BT-549 > 100 µM

COc1cc([N+](=O)[O-])c(S(=O)(=O)O)cc1NS(=O)(=O)c1ccc(C)cc1
inactive: SF-539 > 100 µM | A549 > 100 µM | SK-OV-3 > 100 µM | NCI-H23 > 100 µM | KM12 > 100 µM | OVCAR-4 > 100 µM | CAKI-1 > 100 µM | SK-MEL-2 > 100 µM | NCI/ADR-RES > 100 µM | DU-145 > 100 µM | SNB-19 > 100 µM | SK-MEL-28 > 100 µM | MCF7 > 100 µM | RPMI-8226 > 100 µM | IGROV-1 > 100 µM | SF-295 > 100 µM | BT-549 > 100 µM

O=c1oc2ccccc2c(-c2ccc(O)cc2)c1Oc1ccccc1
inactive: SF-539 20.7 µM | A549 22.1 µM | HCC 2998 7.21 µM | SK-OV-3 34.8 µM | NCI-H23 6.32 µM | KM12 23.6 µM | Malme-3M 2.58 µM | OVCAR-4 20.4 µM | CAKI-1 24.5 µM | SK-MEL-2 7.1 µM | DU-145 4.25 µM | SNB-19 17.7 µM | SK-MEL-28 18.8 µM | MCF7 11.2 µM | RPMI-8226 28.1 µM | IGROV-1 6.44 µM | SF-295 22 µM | BT-549 3.33 µM

N#CC(C(=O)Nc1ccccc1)C1=C(Cl)C(=O)c2ccccc2C1=O (stereo unspecified)
inactive: SF-539 15.2 µM | A549 19.6 µM | HCC 2998 18.1 µM | SK-OV-3 23.9 µM | NCI-H23 18.5 µM | KM12 21.5 µM | Malme-3M 13.8 µM | OVCAR-4 16.9 µM | CAKI-1 18 µM | SK-MEL-2 16.3 µM | SNB-19 17.7 µM | SK-MEL-28 17.1 µM | IGROV-1 17.9 µM | SF-295 17.9 µM

O=C(O)CN1CCNCCN(CP(=O)(O)O)CC1
inactive: A549 4.89 µM | HCC 2998 3.28 µM | SK-OV-3 11.8 µM | NCI-H23 > 100 µM | KM12 5.47 µM | Malme-3M 1.75 µM | OVCAR-4 24.6 µM | CAKI-1 > 100 µM | SK-MEL-2 7.03 µM | DU-145 > 100 µM | SNB-19 > 100 µM | SK-MEL-28 > 100 µM | MCF7 6.22 µM | RPMI-8226 5.52 µM | IGROV-1 4.15 µM | SF-295 26.2 µM | BT-549 > 100 µM
